These results are taken from patent US9949945B2, “3′ equatorial-fluorine-substituted neuraminidase inhibitor compounds, compositions and methods for the use thereof as anti-virals” (THE UNIVERSITY OF BRITISH COLUMBIA, priority 2012, dated 2018).

Where two headings read alike, the source gives them in different places.

Format in all cases: biochemical
In assay [1] the target is B/Florida E119D (B/Florida/4/2006 mutant 1 E117D) NA (Influenza B virus, UniProt J7JZT1, E117D).
Assay [2] concerns the target A/Fukui H3N2 E119V (oseltamivir-resistant) NA (Influenza A virus, UniProt A0A0F6NYK2, E119V). To be noted: read-out: IC50 in the enzyme inhibition assay, A/Fukui H3N2 E119V.
Assay [3] concerns the target Sol Isl sH1N1 E119A (A/Solomon Islands/3/2006 mutant) NA (Influenza A virus, UniProt B4URD9, E119A).
The target in assay [4] is sH1N1/01 H275Y (A/Mississippi/3/01 oseltamivir-resistant) NA (Influenza A virus, UniProt Q3M0T6, H275Y).

With Oseltamivir, the IC50 amounted to 1200 nM in assay [1] and 260 nM in assay [2].

Take Zanamivir: the IC50 was more than 10000 nM in assay [3]; 2.2 nM in assay [4] (read-out: IC50 in the enzyme inhibition assay, A/Mississippi H1N1 H275Y); 2.2 nM in assay [4] (read-out: IC50 sH1N/01 H275Y).
